US20160009693A1, “HERBICIDAL COMPOUNDS” (SYNGENTA LIMITED, priority 2013, published 2016)

Experiments:
Type in all cases: in vivo
Conditions in all cases: applied at 1000 g/h, evaluated after 13 days
[1] = system: Ipomoea hederacea (IPOHE); experiment: Herbicidal glasshouse test, post-emergence, IPOHE
Solanum nigrum (SOLNI) [2] = experiment: Herbicidal glasshouse test, post-emergence, SOLNI
[3] = system: Alopecurus myosuroides (ALOMY); experiment: Herbicidal glasshouse test, pre-emergence, ALOMY
[4] = system: Amaranthus retoflexus (AMARE); experiment: Herbicidal glasshouse test, pre-emergence, AMARE
Method in brief: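 Amaranthus retoflexus seeds were sown in pots of standard soil and kept one day in a glasshouse at 24/16° C. (day/night), 14 hours light and 65% humidity. They were then sprayed pre-emergence with the active ingredient in acetone/water (50:50) containing 0.5% Tween 20. Plants grew under the same conditions, watered twice daily, and percentage damage was scored after 13 days.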

[5] = system: Echinochloa crus-galli (ECHCG); experiment: Herbicidal glasshouse test, pre-emergence, ECHCG
Method in brief: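 Echinochloa crus-galli seeds were sown in standard soil in pots and grown for one day in a glasshouse at 24/16° C. day/night, 14 hours light and 65% humidity. Pre-emergence spraying used an aqueous solution of the active ingredient in acetone/water (50:50) with 0.5% Tween 20. Damage was scored after 13 days on a five point scale.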

Setaria faberi (SETFA) [6] = experiment: Herbicidal glasshouse test, post-emergence, SETFA
Method in brief: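 Setaria faberi seeds were sown in standard soil in pots and grown for 8 days in a glasshouse at 24/16° C. day/night, 14 hours light and 65% humidity. The seedlings were then sprayed post-emergence with the active ingredient in acetone/water (50:50) containing 0.5% Tween 20. Afterwards they were kept under the same conditions, watered twice daily, and scored for percentage damage on a five point scale.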

Solanum nigrum (SOLNI) [7] = experiment: Herbicidal glasshouse test, pre-emergence, SOLNI
Method in brief: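 Seeds of Solanum nigrum were sown in pots of standard soil and kept one day in a glasshouse at 24/16° C. day/night, 14 hours light and 65% humidity. For the pre-emergence treatment they were then sprayed with an aqueous solution of the active ingredient formulated in acetone/water (50:50) containing 0.5% Tween 20. Plant damage was rated after 13 days.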

[8] = system: Amaranthus retoflexus (AMARE); experiment: Herbicidal glasshouse test, post-emergence, AMARE
Method in brief: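 Amaranthus retoflexus (AMARE) seeds were sown in pots of standard soil and grown in a glasshouse at 24/16° C. day/night, 14 hours light and 65% humidity for 8 days. The plants were then sprayed post-emergence with an aqueous solution of the active ingredient in acetone/water (50:50) with 0.5% Tween 20. Damage was scored after 13 days.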

Setaria faberi (SETFA) [9] = experiment: Herbicidal glasshouse test, pre-emergence, SETFA
[10] = system: Ipomoea hederacea (IPOHE); experiment: Herbicidal glasshouse test, pre-emergence, IPOHE
[11] = system: Alopecurus myosuroides (ALOMY); experiment: Herbicidal glasshouse test, post-emergence, ALOMY
[12] = system: Echinochloa crus-galli (ECHCG); experiment: Herbicidal glasshouse test, post-emergence, ECHCG
Method in brief: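 Echinochloa crus-galli (ECHCG) seeds were sown in standard soil in pots and grown for 8 days in a glasshouse at 24/16° C. day/night, 14 hours light and 65% humidity. The young plants were then sprayed post-emergence with the active ingredient in acetone / water (50:50) containing 0.5% Tween 20. Damage was scored after 13 days.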

Row | Compound | POST Application IPOHE, percentage damage (five point scale) [1] | POST Application SOLNI, percentage damage (five point scale) (Solanum nigrum (SOLNI) [2]) | PRE Application ALOMY, percentage damage (five point scale) [3] | PRE Application AMARE, percentage damage (five point scale) [4] | PRE Application ECHCG, percentage damage (five point scale) [5] | POST Application SETFA, percentage damage (five point scale) (Setaria faberi (SETFA) [6]) | PRE Application SOLNI, percentage damage (five point scale) (Solanum nigrum (SOLNI) [7]) | POST Application AMARE, percentage damage (five point scale) [8] | PRE Application SETFA, percentage damage (five point scale) (Setaria faberi (SETFA) [9]) | PRE Application IPOHE, percentage damage (five point scale) [10] | POST Application ALOMY, percentage damage (five point scale) [11] | POST Application ECHCG, percentage damage (five point scale) [12]
1 | Cn1nnnc1NC(=O)c1nn(C)c(=O)n(Cc2cccc(Cl)c2)c1=O [Compound 1.084] | 5 (5=80-100%) | 5 (5=80-100%) | 5 (5=80-100%) | 5 (5=80-100%) | 5 (5=80-100%) | 2 (2=20-39%) | 5 (5=80-100%) | 5 (5=80-100%) | 2 (2=20-39%) | 5 (5=80-100%) | 5 (5=80-100%) | 5 (5=80-100%)
2 | C=CCn1nc(C(=O)Nc2nnnn2C)c(=O)n(-c2ccc(F)cc2)c1=O [Compound 1.011] | 5 (5=80-100%) | 5 (5=80-100%) | 4 (4=60-79%) | 5 (5=80-100%) | 5 (5=80-100%) | 5 (5=80-100%) | 5 (5=80-100%) | 5 (5=80-100%) | 4 (4=60-79%) | 5 (5=80-100%) | 5 (5=80-100%) | 5 (5=80-100%)
3 | CSc1ccc(-n2c(=O)c(C(=O)Nc3nnnn3C)nn(C)c2=O)cc1 [Compound 1.009] | 5 (5=80-100%) | 5 (5=80-100%) | 2 (2=20-39%) | 5 (5=80-100%) | 2 (2=20-39%) | 5 (5=80-100%) | 5 (5=80-100%) | 5 (5=80-100%) | 1 (1=0-19%) | 4 (4=60-79%) | 5 (5=80-100%) | 5 (5=80-100%)
4 | Cn1nnnc1NC(=O)c1nn(C)c(=O)n(-c2cc(C(F)(F)F)cc(C(F)(F)F)c2)c1=O [Compound 1.032] | 5 (5=80-100%) | 5 (5=80-100%) | 5 (5=80-100%) | 5 (5=80-100%) | 5 (5=80-100%) | 4 (4=60-79%) | 5 (5=80-100%) | 5 (5=80-100%) | 5 (5=80-100%) | 4 (4=60-79%) | 5 (5=80-100%) | 5 (5=80-100%)
5 | Cn1nnnc1NC(=O)c1nn(C)c(=O)n(-c2cccc(C(F)(F)F)c2)c1=O [Compound 1.028] | 5 (5=80-100%) | 5 (5=80-100%) | 5 (5=80-100%) | 5 (5=80-100%) | 5 (5=80-100%) | 5 (5=80-100%) | 5 (5=80-100%) | 5 (5=80-100%) | 5 (5=80-100%) | 5 (5=80-100%) | 5 (5=80-100%) | 5 (5=80-100%)
6 | Cn1nnnc1NC(=O)c1nn(C)c(=O)n(-c2cccc(Br)c2)c1=O [Compound 1.033] | 5 (5=80-100%) | 5 (5=80-100%) | 5 (5=80-100%) | 5 (5=80-100%) | 5 (5=80-100%) | 5 (5=80-100%) | 5 (5=80-100%) | 5 (5=80-100%) | 5 (5=80-100%) | 5 (5=80-100%) | 5 (5=80-100%) | 5 (5=80-100%)
7 | Cn1ncnc1NC(=O)c1nn(C)c(=O)n(-c2ccccc2)c1=O [Compound 5.001] | 5 (5=80-100%) | 5 (5=80-100%) | 1 (1=0-19%) | 5 (5=80-100%) | 1 (1=0-19%) | 5 (5=80-100%) | 5 (5=80-100%) | 5 (5=80-100%) | 1 (1=0-19%) | 4 (4=60-79%) | 5 (5=80-100%) | 5 (5=80-100%)
8 | Cn1nnnc1NC(=O)c1nn(C)c(=O)n(-c2cccc(F)c2F)c1=O [Compound 1.003] | 5 (5=80-100%) | 5 (5=80-100%) | 5 (5=80-100%) | 5 (5=80-100%) | 5 (5=80-100%) | 5 (5=80-100%) | 5 (5=80-100%) | 5 (5=80-100%) | 5 (5=80-100%) | 5 (5=80-100%) | 5 (5=80-100%) | 5 (5=80-100%)
